Test results taken from PubChem BioAssay AID2060503 (Molecular Pharmacology Branch, DTP, NCI, 2025).

Test system: 817829-284-R-J1-PDC complex spheroids, viability
Test: Anticancer human tumor 817829-284-R-J1-PDC patient-derived colon adenocarcinoma cell line growth inhibition [GQUAD]
Conditions: for IC50: curve of first compound; for viability, T/C: stronger effect = lower value
Outline: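 Viability of tumor cells grown as complex spheroids with endothelial and stromal cells, exposed to drug combinations. Top concentration at or near clinical Cmax (else 10 microM), diluted in half-log increments.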

[1] = second compound 0.0316 µM, first compound 0.0316 µM
[2] = second compound 0.0316 µM, first compound 0.1 µM
[3] = second compound 0.0316 µM, first compound 0.316 µM
[4] = second compound 0.0316 µM, first compound 1 µM
[5] = second compound 0.0316 µM, first compound 3.16 µM
[6] = second compound 0.0316 µM, first compound 10 µM
[7] = second compound 0.1 µM, first compound 0.0316 µM
[8] = second compound 0.1 µM, first compound 0.1 µM
[9] = second compound 0.1 µM, first compound 0.316 µM
[10] = second compound 0.1 µM, first compound 1 µM
[11] = second compound 0.1 µM, first compound 3.16 µM
[12] = second compound 0.1 µM, first compound 10 µM
[13] = second compound 0.316 µM, first compound 0.0316 µM
[14] = second compound 0.316 µM, first compound 0.1 µM
[15] = second compound 0.316 µM, first compound 0.316 µM
[16] = second compound 0.316 µM, first compound 1 µM
[17] = second compound 0.316 µM, first compound 3.16 µM
[18] = second compound 0.316 µM, first compound 10 µM
[19] = second compound 1 µM, first compound 0.0316 µM
[20] = second compound 1 µM, first compound 0.1 µM
[21] = second compound 1 µM, first compound 0.316 µM
[22] = second compound 1 µM, first compound 1 µM
[23] = second compound 1 µM, first compound 3.16 µM
[24] = second compound 1 µM, first compound 10 µM
[25] = second compound 3.16 µM, first compound 0.0316 µM
[26] = second compound 3.16 µM, first compound 0.1 µM
[27] = second compound 3.16 µM, first compound 0.316 µM
[28] = second compound 3.16 µM, first compound 1 µM
[29] = second compound 3.16 µM, first compound 3.16 µM
[30] = second compound 3.16 µM, first compound 10 µM
[31] = second compound 10 µM, first compound 0.0316 µM
[32] = second compound 10 µM, first compound 0.1 µM
[33] = second compound 10 µM, first compound 0.316 µM
[34] = second compound 10 µM, first compound 1 µM
[35] = second compound 10 µM, first compound 3.16 µM
[36] = second compound 10 µM, first compound 10 µM
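Also: spheroids exposed to agents for 7 days before readout.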
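For viability, T/C in this document: percent viability relative to DMSO vehicle control taken as 100%.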

COc1cc(C2c3cc4c(cc3C(OC3OC5COC(C)OC5C(O)C3O)C3COC(=O)C23)OCO4)cc(OC)c1O (stereo not drawn) + Cc1cnc(CNC(=O)c2c(=O)c3ccc(N4CCCN(C)CC4)nc3n3c2sc2ccccc23)cn1
IC50 (second compound 0.0316 µM): 39.3 nM | IC50 (second compound 0.1 µM): < 31.6 nM | IC50 (second compound 0.316 µM): < 31.6 nM | IC50 (second compound 1 µM): < 31.6 nM | IC50 (second compound 3.16 µM): < 31.6 nM | IC50 (second compound 10 µM): < 31.6 nM | viability, T/C [1]: 57.3% | viability, T/C [2]: 30.7% | viability, T/C [3]: 35.5% | viability, T/C [4]: 23.1% | viability, T/C [5]: 15.1% | viability, T/C [6]: 7.07% | viability, T/C [7]: 30.4% | viability, T/C [8]: 31.3% | viability, T/C [9]: 22.9% | viability, T/C [10]: 24.6% | viability, T/C [11]: 15% | viability, T/C [12]: 6.35% | viability, T/C [13]: 22.4% | viability, T/C [14]: 27.7% | viability, T/C [15]: 23.2% | viability, T/C [16]: 21% | viability, T/C [17]: 11.9% | viability, T/C [18]: 7.02% | viability, T/C [19]: 18.7% | viability, T/C [20]: 21.1% | viability, T/C [21]: 18.8% | viability, T/C [22]: 22.5% | viability, T/C [23]: 12.2% | viability, T/C [24]: 5.25% | viability, T/C [25]: 19.6% | viability, T/C [26]: 22.5% | viability, T/C [27]: 19.5% | viability, T/C [28]: 15.9% | viability, T/C [29]: 9.99% | viability, T/C [30]: 5.08% | viability, T/C [31]: 0.08% | viability, T/C [32]: 0.12% | viability, T/C [33]: 0.15% | viability, T/C [34]: 0.11% | viability, T/C [35]: 0.15% | viability, T/C [36]: 0.14%

Cn1ncnc1[C@H]1c2n[nH]c(=O)c3cc(F)cc(c23)N[C@@H]1c1ccc(F)cc1 + Cc1cnc(CNC(=O)c2c(=O)c3ccc(N4CCCN(C)CC4)nc3n3c2sc2ccccc23)cn1
IC50 (second compound 0.0316 µM): 27.3 nM | IC50 (second compound 0.1 µM): < 0.999 nM | IC50 (second compound 0.316 µM): < 0.999 nM | IC50 (second compound 1 µM): < 0.999 nM | IC50 (second compound 3.16 µM): < 0.999 nM | IC50 (second compound 10 µM): < 0.999 nM | viability, T/C (second compound 0.0316 µM, first compound 0.000999 µM): 84.5% | viability, T/C (second compound 0.0316 µM, first compound 0.00316 µM): 70.5% | viability, T/C (second compound 0.0316 µM, first compound 0.00999 µM): 58.1% | viability, T/C [1]: 48.8% | viability, T/C (second compound 0.0316 µM, first compound 0.0999 µM): 43.6% | viability, T/C [3]: 42.4% | viability, T/C (second compound 0.1 µM, first compound 0.000999 µM): 38.6% | viability, T/C (second compound 0.1 µM, first compound 0.00316 µM): 35.7% | viability, T/C (second compound 0.1 µM, first compound 0.00999 µM): 29.8% | viability, T/C [7]: 34.2% | viability, T/C (second compound 0.1 µM, first compound 0.0999 µM): 31.7% | viability, T/C [9]: 29.6% | viability, T/C (second compound 0.316 µM, first compound 0.000999 µM): 26.3% | viability, T/C (second compound 0.316 µM, first compound 0.00316 µM): 25.3% | viability, T/C (second compound 0.316 µM, first compound 0.00999 µM): 27.7% | viability, T/C [13]: 26.7% | viability, T/C (second compound 0.316 µM, first compound 0.0999 µM): 26.4% | viability, T/C [15]: 25.3% | viability, T/C (second compound 1 µM, first compound 0.000999 µM): 21.2% | viability, T/C (second compound 1 µM, first compound 0.00316 µM): 22.5% | viability, T/C (second compound 1 µM, first compound 0.00999 µM): 23.2% | viability, T/C [19]: 22.9% | viability, T/C (second compound 1 µM, first compound 0.0999 µM): 23.3% | viability, T/C [21]: 22% | viability, T/C (second compound 3.16 µM, first compound 0.000999 µM): 20.3% | viability, T/C (second compound 3.16 µM, first compound 0.00316 µM): 21% | viability, T/C (second compound 3.16 µM, first compound 0.00999 µM): 19.8% | viability, T/C [25]: 19.4% | viability, T/C (second compound 3.16 µM, first compound 0.0999 µM): 20.4% | viability, T/C [27]: 16.3% | viability, T/C (second compound 10 µM, first compound 0.000999 µM): 0.16% | viability, T/C (second compound 10 µM, first compound 0.00316 µM): 0.2% | viability, T/C (second compound 10 µM, first compound 0.00999 µM): 0.19% | viability, T/C [31]: 0.17% | viability, T/C (second compound 10 µM, first compound 0.0999 µM): 0.19% | viability, T/C [33]: 0.2%

CC(C)(O)C1CCC(Nc2ccc3ncc(-c4cccc(C(F)(F)F)c4)n3n2)CC1 (stereo not drawn) + CN(C)c1ccc(Nc2c3ccc(NC(=O)CCN4CCCC4)cc3nc3cc(NC(=O)CCN4CCCC4)ccc23)cc1
IC50 (second compound 0.0316 µM): > 10000 nM | IC50 (second compound 0.1 µM): 3130 nM | IC50 (second compound 0.316 µM): 2570 nM | IC50 (second compound 1 µM): 2260 nM | IC50 (second compound 3.16 µM): 2100 nM | IC50 (second compound 10 µM): 1170 nM | viability, T/C [1]: 102% | viability, T/C [2]: 100% | viability, T/C [3]: 111% | viability, T/C [4]: 88.4% | viability, T/C [5]: 35.7% | viability, T/C [6]: 64.8% | viability, T/C [7]: 98% | viability, T/C [8]: 101% | viability, T/C [9]: 90.3% | viability, T/C [10]: 95.9% | viability, T/C [11]: 39.9% | viability, T/C [12]: 59.2% | viability, T/C [13]: 97.5% | viability, T/C [14]: 97% | viability, T/C [15]: 86.8% | viability, T/C [16]: 97.1% | viability, T/C [17]: 33.4% | viability, T/C [18]: 47.3% | viability, T/C [19]: 92.9% | viability, T/C [20]: 103% | viability, T/C [21]: 95.8% | viability, T/C [22]: 93.5% | viability, T/C [23]: 28.9% | viability, T/C [24]: 35.1% | viability, T/C [25]: 96.5% | viability, T/C [26]: 97.3% | viability, T/C [27]: 87.9% | viability, T/C [28]: 83.3% | viability, T/C [29]: 31.6% | viability, T/C [30]: 23.2% | viability, T/C [31]: 96% | viability, T/C [32]: 102% | viability, T/C [33]: 87.2% | viability, T/C [34]: 58.5% | viability, T/C [35]: 5.62% | viability, T/C [36]: 2.44%

CC1COCCN1c1cc(-c2ccnn2C)c2ccnc(-c3ccn[nH]3)c2n1 (stereo not drawn) + Cc1cnc(CNC(=O)c2c(=O)c3ccc(N4CCCN(C)CC4)nc3n3c2sc2ccccc23)cn1
IC50 (second compound 0.0316 µM): < 31.6 nM | IC50 (second compound 0.1 µM): < 31.6 nM | IC50 (second compound 0.316 µM): < 31.6 nM | IC50 (second compound 1 µM): < 31.6 nM | IC50 (second compound 3.16 µM): < 31.6 nM | IC50 (second compound 10 µM): < 31.6 nM | viability, T/C [1]: 14.8% | viability, T/C [2]: 9.78% | viability, T/C [3]: 9.09% | viability, T/C [4]: 7.06% | viability, T/C [5]: 6.16% | viability, T/C [6]: 4.96% | viability, T/C [7]: 13.3% | viability, T/C [8]: 11.1% | viability, T/C [9]: 8.18% | viability, T/C [10]: 6.54% | viability, T/C [11]: 6.01% | viability, T/C [12]: 3.97% | viability, T/C [13]: 15% | viability, T/C [14]: 11.9% | viability, T/C [15]: 8.36% | viability, T/C [16]: 6.17% | viability, T/C [17]: 5.71% | viability, T/C [18]: 4.08% | viability, T/C [19]: 13.8% | viability, T/C [20]: 14.1% | viability, T/C [21]: 9.19% | viability, T/C [22]: 6.22% | viability, T/C [23]: 5.53% | viability, T/C [24]: 3.34% | viability, T/C [25]: 11.8% | viability, T/C [26]: 12.1% | viability, T/C [27]: 8.66% | viability, T/C [28]: 6.72% | viability, T/C [29]: 3.24% | viability, T/C [30]: 2.62% | viability, T/C [31]: 0.06% | viability, T/C [32]: 0.09% | viability, T/C [33]: 0.11% | viability, T/C [34]: 0.08% | viability, T/C [35]: 0.12% | viability, T/C [36]: 0.12%
